# Data reported in PubChem BioAssay AID1645864 (Buhrlage Lab, Dana-Farber Cancer Institute and Novartis …, 2021).
# Activity calls are given as the source filed them.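 The calls were made as follows: active = maximal inhibition of USP17 at or above 30% in the confirmation dose-response, a value not among the printed readouts; inactive = the rest.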
# Target: Ubiquitin carboxyl-terminal hydrolase 17-like protein 5 (Homo sapiens) (UniProt A8MUK1)
# Experiment: ubiquitin-specific protease 17 inhibitors, concentration series, biochemical, verification of primary actives (AID 1645864)
# Settings: purified USP17, ubiquitin-rhodamine cleavage fluorescence, 3 h
# Sequence of Ubiquitin carboxyl-terminal hydrolase 17-like protein 5 (Homo sapiens) (A8MUK1 whole entry, looked up): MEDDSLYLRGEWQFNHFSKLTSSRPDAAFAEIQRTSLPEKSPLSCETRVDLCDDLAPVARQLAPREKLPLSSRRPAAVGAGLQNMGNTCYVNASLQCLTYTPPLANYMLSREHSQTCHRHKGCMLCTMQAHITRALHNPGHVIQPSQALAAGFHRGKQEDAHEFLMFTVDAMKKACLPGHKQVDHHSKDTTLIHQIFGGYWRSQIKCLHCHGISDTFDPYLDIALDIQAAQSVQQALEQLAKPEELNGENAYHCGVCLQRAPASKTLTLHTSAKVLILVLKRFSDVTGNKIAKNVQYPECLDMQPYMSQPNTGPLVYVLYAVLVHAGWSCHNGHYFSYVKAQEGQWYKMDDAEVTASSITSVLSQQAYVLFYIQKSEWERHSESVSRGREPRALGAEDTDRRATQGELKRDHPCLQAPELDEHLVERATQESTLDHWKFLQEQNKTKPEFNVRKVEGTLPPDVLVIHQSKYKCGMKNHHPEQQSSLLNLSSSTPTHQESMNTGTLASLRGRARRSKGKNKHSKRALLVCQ
row,IC50,SMILES
1,2.88 µM,Cc1c(-c2ccc(C#N)cc2)oc2ccc(Br)cc2c1=O
2,28.2 µM,O=C(COc1ccc(Cl)cc1)NCc1nnc(SCC(=O)NCc2ccc3c(c2)OCO3)o1
3,17.9 µM,O=C(NCCc1ccccn1)c1cc(-c2ccc(Br)cc2)n[nH]1
4,32.5 µM,C=C1CCC2[C@](C)(CCC[C@]2(C)C(=O)OC)[C@H]1CCc1ccoc1/C=C/C(=O)O (stereo partly drawn)
5,3.08 µM,CCCCNc1nc2c(-c3ccccc3)nnn2c2ccccc12
6,> 50 µM (inactive),Cc1cc(C(=O)Nc2ccc3c(c2)OCCO3)no1
7,3.42 µM,CCc1ccc(NC(=O)COC(=O)c2n[nH]c3ccccc23)cc1
8,0.233 µM,O=C1CC(O)C(C2=CC(=O)c3c(O)cccc3C2=O)O1 (stereo not drawn)
9,4.42 µM,COc1ccc(CNC(=O)CN2C(=O)CC(c3ccccc3)=Nc3ccccc32)cc1
10,> 50 µM (inactive),O=C(NCc1ccccc1)c1ccc(-c2ccc(N3CCCC3)nn2)cc1
11,> 50 µM (inactive),COc1ccc(C(=O)NCC(c2ccc3c(c2)CCCN3C)N2CCCC2)cc1 (stereo not drawn)
12,28.7 µM,O=C(NCCc1ccccc1F)c1cn2cc(Cl)ccc2n1
13,> 50 µM (inactive),COc1ccc(C(=O)Nc2ccc(S(=O)(=O)N3CCCCC3)cc2)cc1
14,33.7 µM,O=C(Cn1nnc(-c2ccc(F)cc2)n1)NCCc1ccccc1
15,> 50 µM (inactive),O=C(c1ccc(COc2cccc3ccccc23)o1)N1CCC(Cc2ccccc2)CC1
16,11.9 µM,O=C1C=C(O)c2c(O)cccc2C1=O
17,31.2 µM,O=C(Cc1cccs1)Nc1cc(F)c2nc(N3CCOCC3)ccc2c1
18,> 50 µM (inactive),COc1cccc(-n2ccc(=O)c(-c3nc(-c4ccccc4Cl)no3)n2)c1
19,49.2 µM,COc1cccc(NC(=O)Nc2ccc(CCc3nc4ccccc4[nH]3)cc2)c1
20,> 50 µM (inactive),Cc1ccc2c(c1C)NC(=O)[C@]21[C@@H]2C(=O)N(c3cccc(Cl)c3)C(=O)[C@@H]2[C@@H]2CCCN21
21,> 50 µM (inactive),O=S(=O)(c1ccccc1Cl)N1CCN(c2ccc3nnc(-c4ccco4)n3n2)CC1
22,> 50 µM (inactive),CCN(Cc1ccccc1)S(=O)(=O)c1ccc(C(=O)Nc2ccc3c(c2)OCCO3)cc1
23,> 50 µM (inactive),Cc1ccc(C(=O)Nc2ccc(S(=O)(=O)N3CCCC3)cc2)cc1Br
24,24.4 µM,Cc1cc(=O)c2c(O)oc(O)c3c(O)cc(=O)c1c32
25,> 50 µM (inactive),CC(C)Cc1cc(-c2nnc3sc(-c4ccco4)nn23)n[nH]1
26,3.29 µM,CCC(C)c1ccc(-c2csc(Cn3c(CN4CCN(C)CC4)nc4ccccc4c3=O)n2)cc1 (stereo not drawn)
27,> 50 µM (inactive),Cc1nc(-c2ccc3c(c2)nnn3CCN2CCOCC2)no1

row,IC50,SMILES
1,> 50 µM (inactive),Cc1cccc(C(=O)N2CCN3Cc4ccccc4N(C)CC3C2)c1 (stereo not drawn)
2,1.67 µM,Cc1nc(SCC(=O)Nc2cc(Cl)ccc2C)c2oc3ccccc3c2n1
3,> 50 µM (inactive),CCOC(=O)C1C(c2ccc(Br)cc2)C2(C(=O)c3ccccc3C2=O)C2C=Cc3ccccc3N12 (stereo not drawn)
4,13.7 µM,CC(=O)c1sc(NC(=O)/C=C/c2ccccc2)nc1-c1ccccc1
5,32.1 µM,CC(=O)c1ccc(NC(=O)C[n+]2cc(-c3ccc(Cl)cc3)n3c2CCC3)cc1
6,19.1 µM,COc1cccc(N2C(=O)N(CC(=O)NCc3ccc(Cl)cc3)c3ccccc3S2(=O)=O)c1
7,> 50 µM (inactive),O=C(Nc1nnc2n1CCCS2)c1cc2ccccc2o1
8,> 50 µM (inactive),Cc1ccc(C2c3cccn3CCN2C(=O)Nc2ccccc2)cc1 (stereo not drawn)
9,1.23 µM,COc1ccc(C(=O)Nc2nc(-c3ccc4c(c3)NC(=O)CO4)c(C)s2)cc1OC
10,28.9 µM,COc1ccccc1-c1nc(-c2cn(-c3ccc(C)cc3)nn2)no1
11,> 50 µM (inactive),c1ccc(CN2CCN(c3nc4ccccc4n4nnnc34)CC2)cc1
12,> 50 µM (inactive),Cc1ccc(-c2nnc(-n3ncc(C#N)c3N)c3ccccc23)cc1C
13,> 50 µM (inactive),CC1CCN(S(=O)(=O)c2ccc3[nH]cc(C(=O)NCc4ccco4)c(=O)c3c2)CC1
14,> 50 µM (inactive),Cc1c(C(=O)c2ccccc2)c2ccccn2c1CCc1ccccn1
15,> 50 µM (inactive),O=C(COc1nc2ccccc2nc1N1CCOCC1)NC(c1ccccc1)c1ccccc1
16,> 50 µM (inactive),CN(C(=O)c1ccncc1)[C@H]1CC[C@@]2(C)C[C@H](c3ccccc3)C[C@](C)(O2)[C@@H]1O
17,17.9 µM,CC1OC1C(=O)[C@]1(O)[C@H](C)[C@@H](O)[C@@]23O[C@@]2([C@H](O)c2c(O)cccc2C3=O)[C@H]1O (stereo partly drawn)
18,3.97 µM,CCOc1ccc(NC(=O)Cn2c(=O)n(CC(=O)NCc3ccc(C)cc3)c(=O)c3sccc32)cc1
19,> 50 µM (inactive),O=C(O)COc1ccccc1/C=C1\CCc2c1nc1ccccc1c2C(=O)O
20,17.7 µM,CCOc1ccc(C(=O)Cn2c(=O)n(CC3CCCO3)c(=O)c3cc(OC)c(OC)cc32)cc1Cl (stereo not drawn)
21,34.4 µM,Cc1c(C)n(-c2ccccc2)c2ncn(CC(=O)NCCCc3ccccc3)c(=O)c12
22,> 50 µM (inactive),CC(C)CCCCCCCCCCC(=O)N(C)[C@H](CO)C(=O)N[C@H](C)C(=O)NCC(=O)N(C)C1C(=O)N[C@@H](C)C(=O)NC(C(=O)O)Cc2ccc(O)c(c2)-c2cc1ccc2O (stereo partly drawn)
23,> 50 µM (inactive),Cc1cc(C)cc(NC(=O)CSc2ccc(-c3ccncc3)nn2)c1
24,> 50 µM (inactive),Cc1ccc(NC(=O)c2nnn(-c3ccccc3)n2)cc1F
25,25.3 µM,CCOC(=O)c1nc(Nc2ccc(OC)c(Cl)c2)c2ccccc2n1
26,2.36 µM,COC(=O)c1ccc2c(=O)n(CCCCCC(=O)NCc3cccc(Cl)c3)c(=O)[nH]c2c1

# Continued, compound first:
row,SMILES,IC50
1,COc1ccc(Cn2c(SCc3ccc(C(=O)NCCc4ccccc4)cc3)nc3ccncc32)cc1,> 50 µM (inactive)
2,Cc1nn(-c2cc(N3CCOCC3)ncn2)c(C)c1CCC(=O)Nc1ccc(C(C)C)cc1,29.1 µM
3,Cc1nn(CC(=O)Nc2ccc(Br)c3cccnc23)c(=O)c2ccccc12,12.7 µM
4,CCN1C(SCc2ccc(F)cc2)=NS(=O)(=O)c2ccccc21,> 50 µM (inactive)
5,CCOC(=O)c1cnn(-c2ccc(C(=O)Nc3ccc(C)c(Cl)c3)cc2)c1N,2.35 µM
6,CC(C)(C)C(=O)C1C2C(=O)N(Cc3ccccc3)C(=O)C2C2c3ccccc3C=CN12 (stereo not drawn),> 50 µM (inactive)
7,CC(NC(=O)c1ccccc1)c1nc2ccccc2n1CC(=O)Nc1ccc2c(c1)OCO2 (stereo not drawn),2.25 µM
8,COc1cc(-c2nc(C(N)=O)c3[nH]c(=O)n(-c4ccc(C)cc4)c3n2)cc(OC)c1OC,1.96 µM
9,CC(C)CCN1C(=O)C2C(C(=O)Nc3ccc(Oc4ccccc4)cc3)C3C=CC2(O3)C1C(=O)NC1CCCCC1 (stereo not drawn),34 µM
10,COc1cccc(C(=O)NCC(=O)Nc2nc3ccccc3[nH]2)c1,38.6 µM
11,CCOC(=O)c1cc2c(ccn2C)n1Cc1cccc2ccccc12,> 50 µM (inactive)
12,O=C(Nc1nc2c(ccc3ccccc32)s1)c1cccc(Br)c1,2.7 µM
13,C/C=C\C1=CC(=O)[C@]23C[C@H]2[C@]2(C)CO[C@@]1(O)[C@@]3(O)O2,> 50 µM (inactive)
14,CCC(=O)Nc1ccc2c(c1)nc(CSc1nccc(C)n1)n2CC,> 50 µM (inactive)
15,CCCn1cc(C(=O)N2CCC3(CC2)CC2(CO3)Nc3ccccc3-n3cccc32)c(C)n1 (stereo not drawn),27.6 µM
16,COC(=O)C1C(c2ccc(OC)cc2)C2(C(=O)c3ccccc3C2=O)C2C=Cc3ccccc3N12 (stereo not drawn),> 50 µM (inactive)
17,COc1cc(NC(=O)Cn2nc(-c3ccc(F)cc3)ccc2=O)ccc1-n1cnnn1,1.9 µM
18,COc1ccc(N2C(=O)[C@@H]3[C@H]4c5ccccc5C=CN4C(C(=O)Nc4ccc5c(c4)OCO5)[C@@H]3C2=O)cc1 (stereo partly drawn),> 50 µM (inactive)
19,COc1ccc(C2/C(=C(\O)c3ccccc3)C(=O)C(=O)N2c2nc3ccc(F)cc3s2)cc1 (stereo not drawn),17.9 µM
20,COc1cc(C(=O)NC(Cc2ccccc2)c2nc3ccccc3[nH]2)cc(OC)c1OC (stereo not drawn),2.62 µM
21,O=C(CSc1nc2ccncc2[nH]1)Nc1ccc(Br)cc1F,37.9 µM
22,Cn1c(-c2nnc(SCC(=O)Nc3ccccc3F)o2)cc2ccccc21,21.3 µM
23,Cc1cc(C(=O)N2CC(C(=O)Nc3cc(C(F)(F)F)ccc3Cl)C2)no1,38.4 µM

row,SMILES,IC50
1,Nc1nc(OCc2ccccc2)c2[nH]c(/C=C/c3cccs3)nc2n1,32.5 µM
2,O=C(Cc1ccc(Cl)c(Cl)c1)OCC(=O)c1c[nH]c2ccccc12,> 50 µM (inactive)
3,CC(=O)Nc1cc2cc(-n3cccc3)ccc2oc1=O,3.83 µM
4,Cc1ccc2c(=O)c(C(=O)Nc3ccccc3)cn(CC(=O)NC3CCCCC3)c2n1,< 0.05 µM
5,COc1ccc(NC(=O)CN2C(=O)c3ccccc3Sc3ccc(C(=O)N4CCCC4)cc32)cc1OC,26.1 µM
6,COc1cccc(-n2c(=O)[nH]c3c(C(N)=O)nc(-c4ccc(OCc5ccccc5)cc4)nc32)c1,> 50 µM (inactive)
7,O=C1CC(C(=O)Nc2ccccc2F)n2nc(-c3ccccc3)cc2N1 (stereo not drawn),25.3 µM
8,O=C(Nc1cccc(C(F)(F)F)c1)N1CCCn2c(nc3ccccc32)C1,25 µM
9,O=C1Nc2c(Cl)cc(Cl)cc2C1(O)c1sc(NC2CCCCC2)nc1-c1ccccc1 (stereo not drawn),30.9 µM
10,O=C(NCCn1ccc2ccccc21)c1cc2ccccc2oc1=O,29.8 µM
11,COc1ccc(NC(=O)c2nnn(-c3ccccc3)c2C)cc1OC,> 50 µM (inactive)
12,CCOc1ccc(S(=O)(=O)Nc2ccc[nH]c2=O)cc1,> 50 µM (inactive)
13,COc1ccc(C(=O)N2CCCC3(C2)Nc2cccnc2NC3=NC2CCCC2)cn1 (stereo not drawn),> 50 µM (inactive)
14,CCc1nc(-c2cc(C(=O)N3CCOCC3)c3ccccn23)cs1,> 50 µM (inactive)
15,Cc1cc(Nc2ccc(C(=O)NCc3ccco3)cc2)n2nc(-c3cccnc3)nc2n1,34.1 µM
16,CC(=O)c1ccc(NC(=O)c2ccc(N3CCCCS3(=O)=O)cc2Cl)cc1,30.6 µM
17,COCCCN1CCS(=O)(=O)c2c(Cl)c(F)nc(Oc3ccc(C#N)cc3)c21,> 50 µM (inactive)
18,COc1cccc2sc(N3CCN(c4nc5ccccc5s4)CC3)nc12,38 µM
19,O=C(Cn1c(=O)n(Cc2ccc(F)cc2)c(=O)c2sccc21)Nc1cccc(Cl)c1,7.77 µM
20,CCOc1ccc(Nc2cc(C(=O)NCCc3ccccc3)c3ccccc3n2)cc1,24.1 µM
21,Cc1nc(-c2ccccn2)sc1C(=O)Nc1ccc(C#N)cc1,> 50 µM (inactive)
22,Cn1cccc1C(=O)N1CCCC2(C1)Nc1cccnc1NC2=NC1CCCC1 (stereo not drawn),> 50 µM (inactive)
